Experimental data as given in patent US8791144B2, “Substituted N-phenyl-1-(4-Pyridinyl)-1H-pyrazol-3-amines” (Janssen Pharmaceutica NV, priority 2009, dated 2014).

Assays:
[1] = target: T1, hα7-wt nAChR (Homo sapiens, UniProt P36544); experiment: Ca2+ flux imaging (FDSS): potentiation of the choline response; format: cell-based; settings: Ca2+ assay as described in D.1; potentiation of choline response, hα7-wt nAChR; read-out: Potency (pEC50) (converted)
How it was run: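 Cells expressing human α7-wt nAChR loaded with fluo-4AM (2 μM final) up to 120 min; HBSS/10 mM HEPES/5 mM CaCl2/0.1% BSA buffer. Compound (0.01–30 μM) applied up to 10 min before 100 μM choline; peak fluorescence measured on FDSS relative to choline alone (100%). EC50 from sigmoidal curves.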

[2] = target: T1, hα7-wt nAChR; experiment: Patch-clamp current recording (whole-cell voltage clamp), potentiation of choline current and PAM type; format: cell-based; set-up: key: Type 0 compounds minimally enhance the effect size of the current elicited by 1 mM choline.; Type 1 compounds enhance the effect size of the current elicited by 1 mM choline but minimally alter the kinetics of the receptor.; Type 2 compounds enhance the effect size of the current elicited by 1 mM choline while reducing the rate and/or the extent of desensitization.; Type 3 compounds enhance the effect size of the current elicited by 1 mM choline. When tested at higher concentrations up to 10 μM they completely inhibit desensitization, in particular a 1 mM choline application of 250 milliseconds.; Type 4 compounds allow for an initial desensitization of the receptor followed by a re-opening of the receptor during agonist application; settings: hα7-wt nAChR-expressing GH4C1 cells, 1 mM choline
How it was run: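 GH4C1 cells stably expressing human wild-type α7 nAChR, whole-cell voltage clamp at −70 mV with rapid application (<100 ms); compound co-applied with 1 mM choline. Peak current potentiation expressed relative to choline-alone response (=100%); compounds reaching ≥200% assigned PAM type 0–4 by current kinetics and desensitization.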

T1 sequence (P36544 23-502): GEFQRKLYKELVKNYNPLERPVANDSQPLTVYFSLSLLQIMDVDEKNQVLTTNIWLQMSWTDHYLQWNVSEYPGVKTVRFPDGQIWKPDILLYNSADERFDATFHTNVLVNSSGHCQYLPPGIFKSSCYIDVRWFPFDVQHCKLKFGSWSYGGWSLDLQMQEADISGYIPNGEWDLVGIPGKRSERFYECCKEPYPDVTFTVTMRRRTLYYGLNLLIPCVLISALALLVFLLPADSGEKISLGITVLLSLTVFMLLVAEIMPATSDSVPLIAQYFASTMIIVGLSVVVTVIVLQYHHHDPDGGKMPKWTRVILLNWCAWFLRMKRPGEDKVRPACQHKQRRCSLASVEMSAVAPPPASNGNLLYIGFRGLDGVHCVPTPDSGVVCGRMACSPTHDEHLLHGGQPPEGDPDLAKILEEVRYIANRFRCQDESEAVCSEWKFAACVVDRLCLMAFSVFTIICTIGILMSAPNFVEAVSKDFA

| Compound | EC50 [1] [nM] | PAM type [2] | melting point [°C] |
| --- | --- | --- | --- |
| CCNC(=O)Cc1cc(Nc2cccc(OC(F)(F)F)c2)nn1-c1cc(C)nc(C)c1 [Compound 114, 1-(2,6-dimethyl-4-pyridinyl)-N-ethyl-3-[[3-(trifluoromethoxy)phenyl]amino]-1H-pyrazole-5-acetamide] | 309 | 2 | 224.2 |
| Cc1cc(-n2nc(Nc3cccc(OC(F)(F)F)c3)cc2CC(=O)NC(C)C)ccn1 [Compound 115, N-(1-methylethyl)-1-(2-methyl-4-pyridinyl)-3-[[3-(trifluoromethoxy)phenyl]amino]-1H-pyrazole-5-acetamide] | 389 | 1 | 228.3 |
| Cc1cc(-n2nc(Nc3cccc(OC(F)(F)F)c3)cc2CC(=O)NC(C)C)cc(C)n1 [Compound 116, 1-(2,6-dimethyl-4-pyridinyl)-N-(1-methylethyl)-3-[[3-(trifluoromethoxy)phenyl]amino]-1H-pyrazole-5-acetamide] | 245 | 2 | 229.1 |
| Cc1cc(-n2nc(Nc3cccc(OC(F)(F)F)c3)cc2CC(=O)NC2CC2)ccn1 [Compound 117, N-cyclopropyl-1-(2-methyl-4-pyridinyl)-3-[[3-(trifluoromethoxy)phenyl]amino]-1H-pyrazole-5-acetamide] | 1200 | 3 | 224.6 |
| Cc1cc(-n2nc(Nc3cccc(OC(F)(F)F)c3)cc2CC(=O)NC2CC2)cc(C)n1 [Compound 118, N-cyclopropyl-1-(2,6-dimethyl-4-pyridinyl)-3-[[3-(trifluoromethoxy)phenyl]amino]-1H-pyrazole-5-acetamide] | 324 | 2 | 230.8 |
| Cc1cc(-n2nc(Nc3cccc(OC(F)(F)F)c3)cc2CC(=O)NCC2CC2)ccn1 [Compound 119, N-(cyclopropylmethyl)-1-(2-methyl-4-pyridinyl)-3-[[3-(trifluoromethoxy)phenyl]amino]-1H-pyrazole-5-acetamide] | 324 | 2 | 191.7 |
| Cc1cc(-n2nc(Nc3cccc(OC(F)(F)F)c3)cc2CC(=O)NCC2CC2)cc(C)n1 [Compound 120, N-(cyclopropylmethyl)-1-(2,6-dimethyl-4-pyridinyl)-3-[[3-(trifluoromethoxy)phenyl]amino]-1H-pyrazole-5-acetamide] | 141 | 2 | 199.4 |
| Cc1cc(-n2nc(Nc3cccc(OC(F)(F)F)c3)cc2CC(=O)NC2CCC2)ccn1 [Compound 121, N-cyclobutyl-1-(2-methyl-4-pyridinyl)-3-[[3-(trifluoromethoxy)phenyl]amino]-1H-pyrazole-5-acetamide] | 417 | 2 | 227.7 |
